From the supplement of paper PMC11281043
± gives the standard deviation of the averaged measurements.

How the values were obtained:
Conditions in all cases: exposure: 6-8 hpf to 5 dpf, scored at 6 dpf
Danio rerio embryo/larva [1] = test: max % larvae with any abnormality across tested concentrations; max tested concentration (log10 uM): 2; higher = more toxic; extreme values may be limits of the assay
Danio rerio embryo/larva [2] = test: max % larvae unhatched across tested concentrations; max tested concentration (log10 uM): 2; higher = more toxic
Danio rerio embryo/larva [3] = test: max % larvae dead across tested concentrations; max tested concentration (log10 uM): 2; higher = more toxic; extreme values may be limits of the assay
Danio rerio embryo/larva [4] = test: max % larvae with abnormal position across tested concentrations; higher = more toxic; extreme values may be limits of the assay
Danio rerio embryo/larva [5] = test: max % larvae with craniofacial defects across tested concentrations; higher = more toxic; extreme values may be limits of the assay
Danio rerio embryo/larva [6] = test: max % larvae generally abnormal across tested concentrations; higher = more toxic; extreme values may be limits of the assay
Danio rerio embryo/larva [7] = test: max % larvae with tail defects across tested concentrations; higher = more toxic; extreme values may be limits of the assay
Danio rerio embryo/larva [8] = test: max % larvae with blood pooling across tested concentrations; higher = more toxic; extreme values may be limits of the assay
Danio rerio embryo/larva [9] = test: max % larvae with edema across tested concentrations; higher = more toxic; extreme values may be limits of the assay
Danio rerio embryo/larva [10] = test: max % larvae with uninflated swim bladder across tested concentrations; higher = more toxic; extreme values may be limits of the assay
Danio rerio embryo/larva [11] = test: max % larvae with pigmentation defects across tested concentrations; higher = more toxic
Danio rerio embryo/larva [12] = test: max % larvae with spinal defects across tested concentrations; higher = more toxic; extreme values may be limits of the assay

SMILES	max % larvae (Danio rerio embryo/larva [1]) [%]	max % larvae unhatched across tested concentrations (Danio rerio embryo/larva [2]) [%]	max % larvae dead across tested concentrations (Danio rerio embryo/larva [3]) [%]	max % larvae (Danio rerio embryo/larva [4]) [%]	max % larvae (Danio rerio embryo/larva [5]) [%]	max % larvae generally abnormal across tested concentrations (Danio rerio embryo/larva [6]) [%]	max % larvae (Danio rerio embryo/larva [7]) [%]	max % larvae (Danio rerio embryo/larva [8]) [%]	max % larvae (Danio rerio embryo/larva [9]) [%]	max % larvae (Danio rerio embryo/larva [10]) [%]	max % larvae (Danio rerio embryo/larva [11]) [%]	max % larvae (Danio rerio embryo/larva [12]) [%]
O=C(CC(=O)C(F)(F)F)C(F)(F)F [1,1,1,5,5,5-Hexafluoro-2,4-pentanedione]	0	0	0									
FC(F)(Br)C(F)(F)C(F)(F)C(F)(F)C(F)(F)C(F)(F)Br [1,6-Dibromododecafluorohexane]	4.17	0	0									
FC(F)(F)C(F)(F)C(F)(F)C(F)(F)CCI [1H,1H,2H,2H-Perfluorohexyl iodide]	8.33	0	0									
OCC(F)(F)C(F)(F)C(F)(F)C(F)F [1H,1H,5H-Perfluoropentanol]	16.7	0	16.7									
OCC(F)(F)C(F)(F)C(F)(F)C(F)(F)C(F)(F)C(F)F [1H,1H,7H-Dodecafluoro-1-heptanol]	8.33	0	0									
OCC(F)(F)OC(F)(F)C(F)(F)OC(F)(F)CO [1H,1H,8H,8H-Perfluoro-3,6-dioxaoctane-1,8-diol]	0	0	0									
FC(F)(F)C(F)(F)C(F)(F)CC1CO1 (stereo not given) [1H,1H-Heptafluorobutyl epoxide]	9.09	0	0									
C=CC(=O)OCC(F)(F)C(F)(F)C(F)(F)C(F)(F)C(F)(F)C(F)(F)C(F)(F)F [1H,1H-Perfluorooctyl acrylate]	0	0	0									
NCC(F)(F)C(F)(F)C(F)(F)C(F)(F)C(F)(F)C(F)(F)C(F)(F)F [1H,1H-Perfluorooctylamine]	33.3 ± 47	0	8.33 ± 12									
C=C(C)C(=O)OCCC(F)(F)C(F)(F)C(F)(F)C(F)(F)C(F)(F)C(F)(F)F [2-(Perfluorohexyl)ethyl methacrylate]	0	0	0									
C=CC(=O)OCCC(F)(F)C(F)(F)C(F)(F)C(F)(F)C(F)(F)C(F)(F)C(F)(F)C(F)(F)F [2-(Perfluorooctyl)ethyl acrylate]	0	0	0									
C=C(C)C(=O)OCCC(F)(F)C(F)(F)C(F)(F)C(F)(F)C(F)(F)C(F)(F)C(F)(F)C(F)(F)F [2-(Perfluorooctyl)ethyl methacrylate]	0	0	0									
O=C(O)C=C(C(F)(F)F)C(F)(F)F [3,3-Bis(trifluoromethyl)-2-propenoic acid]	2.08	0	0									
O=C(O)C=CC(F)(C(F)(F)F)C(F)(F)F [3-(Perfluoroisopropyl)-2-propenoic acid]	16.7	0	0									
OCCCC(F)(F)C(F)(F)C(F)(F)C(F)(F)C(F)(F)C(F)(F)C(F)(F)C(F)(F)F [3-(Perfluorooctyl)propanol]	0	0	0									
OCC(F)(F)C(F)(F)C(F)(F)F [3:1 Fluorotelomer alcohol]	8.33	0	0									
O=C(O)C(F)(F)C(F)(F)C(F)(F)F [Perfluorobutanoic acid] (max tested concentration (log10 uM): 2)				0	20	20	0	0	20	20	0	0

SMILES	max % larvae (Danio rerio embryo/larva [1]) [%]	max % larvae unhatched across tested concentrations (Danio rerio embryo/larva [2]) [%]	max % larvae dead across tested concentrations (Danio rerio embryo/larva [3]) [%]	max % larvae (Danio rerio embryo/larva [4]) [%]	max % larvae (Danio rerio embryo/larva [5]) [%]	max % larvae generally abnormal across tested concentrations (Danio rerio embryo/larva [6]) [%]	max % larvae (Danio rerio embryo/larva [7]) [%]	max % larvae (Danio rerio embryo/larva [8]) [%]	max % larvae (Danio rerio embryo/larva [9]) [%]	max % larvae (Danio rerio embryo/larva [10]) [%]	max % larvae (Danio rerio embryo/larva [11]) [%]	max % larvae (Danio rerio embryo/larva [12]) [%]
O=C(O)C(F)(F)C(F)(F)C(F)(F)C(F)(F)C(F)(F)C(F)(F)F [Perfluoroheptanoic acid] (max tested concentration (log10 uM): 2)				0	0	8.33	0	0	8.33	16.7	0	0
O=C(Cl)C(F)(F)C(F)(F)C(F)(F)C(F)(F)C(F)(F)C(F)(F)F [Perfluoroheptanoyl chloride] (max tested concentration (log10 uM): 2)				4.17	16.7	16.7	8.33	0	16.7	16.7	0	8.33
O=C(O)C(F)(F)C(F)(F)C(F)(F)C(F)(F)C(=O)O [Perfluorohexanedioic acid] (max tested concentration (log10 uM): 2)				0	0	0	0	0	0	0	0	0
O=C(O)C(F)(F)C(F)(F)C(F)(F)C(F)(F)C(F)(F)F [Perfluorohexanoic acid] (max tested concentration (log10 uM): 2)				0	0	0	0	0	0	0	0	0
NC(=O)C(F)(F)C(F)(F)C(F)(F)C(F)(F)C(F)(F)C(F)(F)C(F)(F)F [Perfluorooctanamide] (max tested concentration (log10 uM): 2)				0	0	0	0	0	0	0	0	0
N=C(N)C(F)(F)C(F)(F)C(F)(F)C(F)(F)C(F)(F)C(F)(F)C(F)(F)F [Perfluorooctanamidine] (max tested concentration (log10 uM): 1)				0	0	8.33	0	16.7	4.17	0	0	0
O=C(O)C(F)(F)C(F)(F)C(F)(F)C(F)(F)C(F)(F)C(F)(F)C(F)(F)F [Perfluorooctanoic acid] (max tested concentration (log10 uM): 2)				8.33	0	16.7	4.17	0	16.7	16.7	0	0
NC(=O)C(F)(F)C(F)(F)C(F)(F)C(F)F [Perfluoropentanamide] (max tested concentration (log10 uM): 2)				0	0	0	0	0	0	0	0	0
O=C(O)C(F)(F)C(F)(F)C(F)(F)C(=O)O [Perfluoropentanedioic acid] (max tested concentration (log10 uM): 2)				0	0	0	0	0	0	0	0	0
O=C(O)C(F)(F)C(F)(F)C(F)(F)C(F)(F)F [Perfluoropentanoic acid] (max tested concentration (log10 uM): 2)				4.17	0	16.7	0	0	16.7	16.7	0	0
O=C(O)C(F)(F)C(F)(F)F [Perfluoropropanoic acid] (max tested concentration (log10 uM): 2)				0	0	0	0	0	0	0	0	0
O=C(O)C(F)(F)C(F)(F)C(F)(F)C(F)(F)C(F)(F)C(F)(F)C(F)(F)C(F)(F)C(F)(F)C(F)(F)C(F)(F)C(F)(F)C(F)(F)F [Perfluorotetradecanoic acid] (max tested concentration (log10 uM): 1.30103)				0	0	2.27	0	0	0	4.55	0	0
O=C(O)C(F)(F)C(F)(F)C(F)(F)C(F)(F)C(F)(F)C(F)(F)C(F)(F)C(F)(F)C(F)(F)C(F)(F)C(F)(F)C(F)(F)F [Perfluorotridecanoic acid] (max tested concentration (log10 uM): 1.30103)				8.33	16.7	16.7	0	16.7	16.7	16.7	0	0
O=S(=O)(O)C(F)(F)C(F)(F)C(F)(F)C(F)(F)F [Potassium perfluorobutanesulfonate] (max tested concentration (log10 uM): 2)				0	0	4.17	0	0	0	8.33	0	0
O=S(=O)(O)C(F)(F)C(F)(F)C(F)(F)C(F)(F)C(F)(F)C(F)(F)F [Potassium perfluorohexanesulfonate] (max tested concentration (log10 uM): 2)				19.4	33.3	55.6	0	16.7	44.4	77.8	0	0
O=C(O)C(F)(F)C(F)(F)C(F)(F)C(F)(F)C(F)(F)C(F)(F)C(F)(F)F [Sodium perfluorooctanoate] (max tested concentration (log10 uM): 2)				0	0	0	0	0	0	0	0	0
FC(F)(F)COC(OCC(F)(F)F)OCC(F)(F)F [tris(Trifluoroethoxy)methane] (max tested concentration (log10 uM): 2)				0	0	0	0	0	0	0	0	0
